# Experimental data reported in ChEMBL document CHEMBL3872283, “Design, Synthesis, and Evaluation of Novel and Selective G-protein Coupled Receptor 120 (GPR120) Spirocyclic Agonists” (ACS Med Chem Lett, 2017).
# Activity calls are given as the source filed them. No cut-off for these calls is given here.
# What was measured:
# [1] = biological target: T1, Free fatty acid receptor 4 (Mus musculus, UniProt Q7TMA4); test: Agonist activity at mouse GPR120 expressed in U2OS cells assessed as induction of beta-arrestin2 recruitment after 90 mins by luminescence assay; format: cell-based
# T1 sequence (Q7TMA4 whole entry): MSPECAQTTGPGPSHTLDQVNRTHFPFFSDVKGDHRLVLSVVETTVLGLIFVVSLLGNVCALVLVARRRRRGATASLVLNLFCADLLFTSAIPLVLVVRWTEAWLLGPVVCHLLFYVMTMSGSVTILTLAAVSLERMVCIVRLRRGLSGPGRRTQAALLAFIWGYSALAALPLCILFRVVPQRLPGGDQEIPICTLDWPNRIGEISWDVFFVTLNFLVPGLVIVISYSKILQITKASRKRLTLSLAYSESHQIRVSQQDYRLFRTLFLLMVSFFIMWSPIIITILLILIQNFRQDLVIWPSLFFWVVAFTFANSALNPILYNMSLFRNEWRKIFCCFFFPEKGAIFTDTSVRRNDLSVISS
# [2] = Oral bioavailability in rhesus monkey at 1 mg/kg by LC/MS/MS analysis; format: ADME, organism-based, Macaca mulatta; details: in vivo
# [3] = biological target: T1, Free fatty acid receptor 4; test: Agonist activity at mouse GPR120 expressed in CHOK1 cells assessed as induction of IP1 accumulation after 60 mins by HTRF assay; format: functional, cell-based, CHO-K1
# [4] = test system: Mus musculus; test: Antidiabetic activity in diet-induced obese mouse assessed as increase in glucose infusion rate during hyperinsulinemic euglycemic clamp procedure at 30 mg/kg, po qd administered daily via gavage measured after 28 days; format: functional, organism-based
# [5] = Half life in mouse at 2 mg/kg, iv or 10 mg/kg, po by LC/MS/MS analysis; format: ADME, organism-based; details: in vivo
# [6] = Protein binding in dog plasma at 1 mg/kg, iv or 2 mg/kg, po by LC/MS/MS analysis; format: ADME, organism-based, Canis lupus familiaris; details: read-out: PPB (converted)
# [7] = Oral bioavailability in mouse at 10 mg/kg by LC/MS/MS analysis; format: ADME, organism-based; details: in vivo
# [8] = AUC in dog at 1 mg/kg, iv by LC/MS/MS analysis; format: ADME, organism-based, Canis lupus familiaris; details: in vivo
# [9] = Protein binding in mouse plasma at 2 mg/kg, iv or 10 mg/kg, po by LC/MS/MS analysis; format: ADME, organism-based; details: read-out: PPB (converted)
# [10] = Plasma clearance in rhesus monkey at 0.5 mg/kg, iv or 1 mg/kg, po by LC/MS/MS analysis; format: ADME, organism-based, Macaca mulatta
# [11] = MRT in dog at 1 mg/kg, iv or 2 mg/kg, po by LC/MS/MS analysis; format: ADME, organism-based, Canis lupus familiaris; details: in vivo
# [12] = Plasma clearance in dog at 1 mg/kg, iv or 2 mg/kg, po by LC/MS/MS analysis; format: ADME, organism-based, Canis lupus familiaris
# [13] = biological target: Cytochrome P450 2C9 (Homo sapiens, UniProt P11712); test: Inhibition of human CYP2C9; format: ADME
# [14] = MRT in rat at 1 mg/kg, iv or 2 mg/kg, po by LC/MS/MS analysis; format: ADME, organism-based; details: in vivo
# [15] = MRT in mouse at 2 mg/kg, iv or 10 mg/kg, po by LC/MS/MS analysis; format: ADME, organism-based; details: in vivo
# [16] = MRT in rhesus monkey at 0.5 mg/kg, iv or 1 mg/kg, po by LC/MS/MS analysis; format: ADME, organism-based, Macaca mulatta; details: in vivo
# [17] = Protein binding in rhesus monkey plasma at 0.5 mg/kg, iv or 1 mg/kg, po by LC/MS/MS analysis; format: ADME, organism-based, Macaca mulatta; details: read-out: PPB (converted)
# [18] = biological target: Cytochrome P450 2D6 (Homo sapiens, UniProt P10635); test: Inhibition of human CYP2D6; format: ADME
# [19] = Half life in rhesus monkey at 0.5 mg/kg, iv or 1 mg/kg, po by LC/MS/MS analysis; format: ADME, organism-based, Macaca mulatta; details: in vivo
# [20] = Volume of distribution at steady state in dog at 1 mg/kg, iv or 2 mg/kg, po by LC/MS/MS analysis; format: ADME, organism-based, Canis lupus familiaris; details: in vivo, read-out: Vdss
# [21] = test system: Mus musculus; test: Antidiabetic activity in diet-induced obese mouse assessed as insulin sensitivity by measuring reduction in glucose at 30 mg/kg, po qd administered daily via gavage for 14 days measured on day 14 post dose; format: functional, organism-based
# [22] = test system: Mus musculus; test: Antidiabetic activity in diet-induced obese mouse assessed as reduction in homeostatic model assessment of insulin resistance at 30 mg/kg, po qd administered daily via gavage for 28 days measured on day 28 post dose; format: functional, organism-based
# [23] = test system: Mus musculus; test: Decrease in insulin levels in diet-induced obese mouse at 30 mg/kg, po qd administered daily via gavage for 28 days measured on day 28 post dose; format: functional, organism-based
# [24] = test system: Mus musculus; test: Toxicity in diet-induced obese mouse assessed as change in body weight at 30 mg/kg, po qd administered daily via gavage for 28 days; format: organism-based; details: in vivo, 672 h
# [25] = Plasma clearance in rat at 1 mg/kg, iv or 2 mg/kg, po by LC/MS/MS analysis; format: ADME, organism-based
# [26] = test system: Mus musculus; test: Antidiabetic activity in diet-induced obese mouse assessed as insulin sensitivity by measuring reduction in glucose at 30 mg/kg, po qd administered daily via gavage for 28 days measured on day 28 post dose; format: functional, organism-based
# [27] = Protein binding in rat plasma at 1 mg/kg, iv or 2 mg/kg, po by LC/MS/MS analysis; format: ADME, organism-based; details: read-out: PPB (converted)
# [28] = biological target: T2, Peroxisome proliferator-activated receptor gamma (Homo sapiens) (UniProt P37231); test: Displacement of [3H]Rosiglitazone from recombinant human PPARgamma expressed in insect cells
# T2 sequence (whole entry): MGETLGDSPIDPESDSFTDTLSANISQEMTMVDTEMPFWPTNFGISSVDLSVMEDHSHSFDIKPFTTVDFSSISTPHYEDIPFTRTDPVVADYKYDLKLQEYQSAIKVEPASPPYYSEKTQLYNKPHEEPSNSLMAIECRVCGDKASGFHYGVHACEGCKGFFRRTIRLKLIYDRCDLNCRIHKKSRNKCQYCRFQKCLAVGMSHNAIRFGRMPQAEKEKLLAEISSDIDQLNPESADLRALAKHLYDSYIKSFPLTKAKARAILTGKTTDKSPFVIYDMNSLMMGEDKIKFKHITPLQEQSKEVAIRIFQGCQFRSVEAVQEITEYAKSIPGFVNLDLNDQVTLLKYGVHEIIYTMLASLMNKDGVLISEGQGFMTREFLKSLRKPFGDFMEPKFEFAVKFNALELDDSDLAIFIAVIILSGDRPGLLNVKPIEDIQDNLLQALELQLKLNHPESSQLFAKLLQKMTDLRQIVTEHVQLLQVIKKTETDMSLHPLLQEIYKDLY
# [29] = biological target: Voltage-gated inwardly rectifying potassium channel KCNH2 (Homo sapiens, UniProt Q12809); test: Displacement of [35S]-MK499 from human ERG expressed in HEK293 cell membranes
# [30] = Oral bioavailability in rat at 2 mg/kg by LC/MS/MS analysis; format: ADME, organism-based; details: in vivo
# [31] = Half life in dog at 1 mg/kg, iv or 2 mg/kg, po by LC/MS/MS analysis; format: ADME, organism-based, Canis lupus familiaris; details: in vivo
# Sequence of Cytochrome P450 2C9 (P11712 whole entry): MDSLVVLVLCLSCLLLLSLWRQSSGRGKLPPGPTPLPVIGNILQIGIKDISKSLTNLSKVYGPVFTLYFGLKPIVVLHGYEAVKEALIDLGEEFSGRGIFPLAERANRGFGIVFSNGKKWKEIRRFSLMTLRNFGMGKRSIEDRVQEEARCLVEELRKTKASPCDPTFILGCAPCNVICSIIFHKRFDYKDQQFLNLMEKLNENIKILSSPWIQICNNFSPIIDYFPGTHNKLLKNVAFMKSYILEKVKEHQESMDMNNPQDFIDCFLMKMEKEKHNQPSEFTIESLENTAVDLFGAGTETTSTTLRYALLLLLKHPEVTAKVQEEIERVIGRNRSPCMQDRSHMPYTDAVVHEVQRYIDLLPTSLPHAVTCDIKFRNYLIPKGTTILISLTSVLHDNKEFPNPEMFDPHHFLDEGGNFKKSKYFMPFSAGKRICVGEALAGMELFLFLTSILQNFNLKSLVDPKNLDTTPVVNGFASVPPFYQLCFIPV
# Sequence of Cytochrome P450 2D6 (P10635 whole entry): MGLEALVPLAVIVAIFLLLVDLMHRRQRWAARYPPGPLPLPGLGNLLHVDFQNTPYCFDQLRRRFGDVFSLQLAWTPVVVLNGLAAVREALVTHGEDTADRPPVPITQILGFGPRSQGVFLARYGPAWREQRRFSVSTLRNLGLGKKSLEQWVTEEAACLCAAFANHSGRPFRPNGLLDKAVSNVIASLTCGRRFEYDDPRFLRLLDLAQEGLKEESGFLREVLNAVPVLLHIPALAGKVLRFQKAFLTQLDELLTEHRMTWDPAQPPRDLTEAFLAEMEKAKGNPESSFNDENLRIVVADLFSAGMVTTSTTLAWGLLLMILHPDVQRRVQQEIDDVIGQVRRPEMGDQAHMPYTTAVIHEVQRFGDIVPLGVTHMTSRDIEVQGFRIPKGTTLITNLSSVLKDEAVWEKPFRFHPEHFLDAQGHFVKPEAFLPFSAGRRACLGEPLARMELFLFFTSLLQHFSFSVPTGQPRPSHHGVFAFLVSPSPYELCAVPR
# Sequence of Voltage-gated inwardly rectifying potassium channel KCNH2 (Q12809 whole entry): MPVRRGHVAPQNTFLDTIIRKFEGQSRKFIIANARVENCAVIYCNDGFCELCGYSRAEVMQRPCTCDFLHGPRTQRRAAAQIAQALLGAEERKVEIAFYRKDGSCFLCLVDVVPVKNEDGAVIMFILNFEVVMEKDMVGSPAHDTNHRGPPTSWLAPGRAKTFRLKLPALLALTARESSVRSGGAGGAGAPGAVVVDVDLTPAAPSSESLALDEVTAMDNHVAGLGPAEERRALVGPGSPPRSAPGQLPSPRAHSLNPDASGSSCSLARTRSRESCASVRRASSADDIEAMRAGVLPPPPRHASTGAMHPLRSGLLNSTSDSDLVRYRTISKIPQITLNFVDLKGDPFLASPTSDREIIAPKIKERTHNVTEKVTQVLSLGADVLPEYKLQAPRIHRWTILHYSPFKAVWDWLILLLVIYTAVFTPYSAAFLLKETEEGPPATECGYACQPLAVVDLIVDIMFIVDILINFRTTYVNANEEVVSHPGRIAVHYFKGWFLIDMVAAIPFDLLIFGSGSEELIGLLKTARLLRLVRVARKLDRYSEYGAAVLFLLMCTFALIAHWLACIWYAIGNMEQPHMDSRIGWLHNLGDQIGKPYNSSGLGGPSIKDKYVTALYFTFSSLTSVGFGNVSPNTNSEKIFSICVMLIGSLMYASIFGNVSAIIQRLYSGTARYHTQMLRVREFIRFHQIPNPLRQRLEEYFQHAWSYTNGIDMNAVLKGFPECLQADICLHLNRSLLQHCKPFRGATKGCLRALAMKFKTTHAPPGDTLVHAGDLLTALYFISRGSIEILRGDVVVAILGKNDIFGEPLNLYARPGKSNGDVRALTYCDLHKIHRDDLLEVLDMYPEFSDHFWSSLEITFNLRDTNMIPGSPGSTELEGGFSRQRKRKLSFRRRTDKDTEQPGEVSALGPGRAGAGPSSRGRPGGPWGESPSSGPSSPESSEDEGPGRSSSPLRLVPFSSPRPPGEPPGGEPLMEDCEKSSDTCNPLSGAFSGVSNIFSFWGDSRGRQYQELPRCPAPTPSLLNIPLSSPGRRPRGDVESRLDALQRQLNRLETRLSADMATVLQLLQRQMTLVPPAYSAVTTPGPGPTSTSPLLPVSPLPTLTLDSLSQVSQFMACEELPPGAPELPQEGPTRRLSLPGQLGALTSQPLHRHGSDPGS
compound,measurement,setting,value
O=C(O)CC1CCC2(CC1)CCN(c1cc(OC(F)(F)F)ccc1Cl)CC2,EC50,[1],54 nM
same,bioavailability,[2],77%
same,EC50,[3],33 nM
same,Activity,[4],Active
same,half-life,[5],18.1 h
same,fraction unbound,[6],0.0015
same,bioavailability,[7],100%
same,AUC,[8],4.6 µM·h
same,fraction unbound,[9],0.0021
same,clearance,[10],2.7 mL/min/kg
same,MRT,[11],10.5 h
same,clearance,[12],9.8 mL/min/kg
same,INH,[13],> 48 µM
same,MRT,[14],3 h
same,MRT,[15],26.5 h
same,MRT,[16],10.1 h
same,fraction unbound,[17],0.0028
same,INH,[18],> 48 µM
same,half-life,[19],9.1 h
same,Vd,[20],6.7 L/kg
same,Activity,[21],Active
same,Activity,[22],Active
same,Activity,[23],Active
same,Activity,[24],Non-Toxic
same,clearance,[25],2.3 mL/min/kg
same,Activity,[26],Active
same,fraction unbound,[27],0.0013
same,INH,[28],> 10 µM
same,INH,[29],> 60 µM
same,bioavailability,[30],95%
same,half-life,[31],11 h
